Results taken from patent EP4588510A1, “OPENING/CLOSING CONTROL DEVICE FOR TARGET FORCE-SENSITIVE ION CHANNEL THAT GENERATES SOUND WAVE PATTERN BY USING RESONANCE FREQUENCY(IES), AND BRAIN FUNCTION CONTROL DEVICE” (UIF (University Industry Foundation), Yonsei University, priority 2022, dated 2024).

Target: T1, Piezo1 ion channel (Mus musculus, UniProt E2JF22)
T1 construct: expressed in transfected cells; host or cells: HEK293
Assay: c-Fos immunostaining of cellular activation in HEK293 cells expressing Piezo1
Assay type: cell-based
Conditions: Yoda1 10 µM, Fig. 2, Group F
Procedure: As a model system, HEK293 cells were utilized, and the Piezo1 ion channel, a mechanosensitive ion channel, was expressed in these cells to enable responsiveness to mechanical forces. To achieve this, 5×10^5 cells were seeded in a 60 mm dish, and 5 µg of CMV-Piezo1 plasmid was transfected using Lipofectamine 3000, following the standard protocol.
HEK293 cells expressing Piezo1 were then exposed to two different ultrasound frequencies, 2.0 MHz and 6.25 MHz, for 10 minutes, corresponding to the resonance frequency(ies) of Piezo1 in HEK293 cells. The objective was to observe differences in cellular activation based on frequency. The extent of cellular activation was quantified by immunostaining for c-Fos, a reporter of intracellular calcium ion influx, and the number of activated cells was represented as a percentage.

T1 sequence (E2JF22 whole entry): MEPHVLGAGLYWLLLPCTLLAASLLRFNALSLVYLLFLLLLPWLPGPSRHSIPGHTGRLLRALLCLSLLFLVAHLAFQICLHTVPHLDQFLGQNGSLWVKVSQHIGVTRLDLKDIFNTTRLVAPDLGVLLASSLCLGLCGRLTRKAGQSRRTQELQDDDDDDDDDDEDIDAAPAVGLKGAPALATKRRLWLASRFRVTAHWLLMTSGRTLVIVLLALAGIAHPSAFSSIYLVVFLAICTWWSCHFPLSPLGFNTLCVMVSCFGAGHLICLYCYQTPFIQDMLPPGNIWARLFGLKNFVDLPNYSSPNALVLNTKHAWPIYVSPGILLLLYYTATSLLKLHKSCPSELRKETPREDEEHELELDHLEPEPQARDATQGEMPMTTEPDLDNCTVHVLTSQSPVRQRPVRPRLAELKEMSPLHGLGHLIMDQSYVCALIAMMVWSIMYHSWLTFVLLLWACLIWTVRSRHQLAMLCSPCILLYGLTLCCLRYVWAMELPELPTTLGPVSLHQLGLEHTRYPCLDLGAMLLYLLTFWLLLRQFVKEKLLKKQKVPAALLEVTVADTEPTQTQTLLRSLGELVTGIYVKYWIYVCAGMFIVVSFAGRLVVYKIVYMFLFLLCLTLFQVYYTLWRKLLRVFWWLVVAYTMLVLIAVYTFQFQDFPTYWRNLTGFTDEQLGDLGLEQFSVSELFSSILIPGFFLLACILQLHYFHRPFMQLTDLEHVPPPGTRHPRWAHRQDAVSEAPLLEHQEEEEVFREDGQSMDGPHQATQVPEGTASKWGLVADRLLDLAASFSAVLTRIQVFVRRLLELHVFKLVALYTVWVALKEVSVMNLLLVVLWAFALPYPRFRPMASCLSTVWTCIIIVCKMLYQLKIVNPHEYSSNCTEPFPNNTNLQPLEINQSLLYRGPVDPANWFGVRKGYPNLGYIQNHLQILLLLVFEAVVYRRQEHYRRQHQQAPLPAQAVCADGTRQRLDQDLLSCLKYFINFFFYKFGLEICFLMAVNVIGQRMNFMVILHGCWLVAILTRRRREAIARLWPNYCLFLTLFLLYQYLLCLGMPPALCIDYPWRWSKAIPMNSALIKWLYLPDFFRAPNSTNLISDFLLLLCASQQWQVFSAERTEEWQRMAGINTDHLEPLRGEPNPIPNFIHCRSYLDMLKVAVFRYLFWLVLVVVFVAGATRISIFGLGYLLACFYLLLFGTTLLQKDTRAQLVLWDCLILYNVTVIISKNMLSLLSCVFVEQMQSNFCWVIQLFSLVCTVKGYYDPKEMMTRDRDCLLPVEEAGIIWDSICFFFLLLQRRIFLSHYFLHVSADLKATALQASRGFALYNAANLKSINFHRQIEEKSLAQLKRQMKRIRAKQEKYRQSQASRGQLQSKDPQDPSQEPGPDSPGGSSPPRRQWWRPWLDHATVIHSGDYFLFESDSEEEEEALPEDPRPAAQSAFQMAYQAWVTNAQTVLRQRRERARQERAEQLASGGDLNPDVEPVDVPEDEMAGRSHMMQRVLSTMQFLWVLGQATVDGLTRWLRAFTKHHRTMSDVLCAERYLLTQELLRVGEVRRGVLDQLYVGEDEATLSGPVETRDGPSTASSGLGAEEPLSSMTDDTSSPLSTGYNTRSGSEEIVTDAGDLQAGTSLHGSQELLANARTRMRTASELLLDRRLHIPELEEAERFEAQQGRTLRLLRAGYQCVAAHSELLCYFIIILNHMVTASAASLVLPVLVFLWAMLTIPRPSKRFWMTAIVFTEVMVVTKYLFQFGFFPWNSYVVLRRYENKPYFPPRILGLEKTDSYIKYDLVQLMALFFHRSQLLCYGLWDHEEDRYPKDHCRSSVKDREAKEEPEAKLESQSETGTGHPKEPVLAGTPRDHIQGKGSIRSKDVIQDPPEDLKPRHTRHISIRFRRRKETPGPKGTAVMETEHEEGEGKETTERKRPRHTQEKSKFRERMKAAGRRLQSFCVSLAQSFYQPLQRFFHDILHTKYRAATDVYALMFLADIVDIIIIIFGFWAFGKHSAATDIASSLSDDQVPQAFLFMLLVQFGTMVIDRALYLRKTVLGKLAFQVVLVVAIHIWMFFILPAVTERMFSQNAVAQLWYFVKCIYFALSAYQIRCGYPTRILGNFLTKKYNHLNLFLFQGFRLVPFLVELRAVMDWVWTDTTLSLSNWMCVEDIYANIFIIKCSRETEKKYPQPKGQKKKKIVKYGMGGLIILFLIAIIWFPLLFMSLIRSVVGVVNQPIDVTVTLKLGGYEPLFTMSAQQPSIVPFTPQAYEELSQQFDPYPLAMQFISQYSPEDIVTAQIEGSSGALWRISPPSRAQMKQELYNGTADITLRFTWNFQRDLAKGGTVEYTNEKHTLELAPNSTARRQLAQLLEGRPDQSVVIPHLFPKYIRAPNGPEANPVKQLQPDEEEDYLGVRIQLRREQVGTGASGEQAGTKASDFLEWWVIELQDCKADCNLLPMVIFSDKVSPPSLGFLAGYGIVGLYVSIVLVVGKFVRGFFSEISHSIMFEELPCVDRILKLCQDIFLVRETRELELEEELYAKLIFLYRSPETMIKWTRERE

## Clc1cccc(Cl)c1CSc1nnc(-c2cnccn2)s1 [Yoda1]
  activation (percentage of activated cells, c-Fos): 74%
